In patent US9340590B2 (priority 2011, dated 2016):
Where two headings read alike, the source gives them in different places. Positions of bridges follow the written chain, without caps; N, C: chain ends. Residues, ends and D or L forms follow the SMILES beside them.

Experiments:
Test in all cases: cell-based
hNav1.3 = hNav1.3 (Homo sapiens, UniProt Q9NY46); details: IonWorks Quattro, read-out: IWQ Use Nav1.3
hNav1.5 = hNav1.5 (Homo sapiens, UniProt Q14524); details: IonWorks Quattro, read-out: IWQ Use Nav1.5
hNav1.7 = hNav1.7 (Homo sapiens, UniProt Q15858); format: cell-based; details: IonWorks Quattro, read-out: IWQ Use Nav1.7
[1] = clamped to −110 mV, depolarized to −10 mV, 5 min after compound, n=2

hNav1.3, sequence (Q9NY46 whole entry, looked up): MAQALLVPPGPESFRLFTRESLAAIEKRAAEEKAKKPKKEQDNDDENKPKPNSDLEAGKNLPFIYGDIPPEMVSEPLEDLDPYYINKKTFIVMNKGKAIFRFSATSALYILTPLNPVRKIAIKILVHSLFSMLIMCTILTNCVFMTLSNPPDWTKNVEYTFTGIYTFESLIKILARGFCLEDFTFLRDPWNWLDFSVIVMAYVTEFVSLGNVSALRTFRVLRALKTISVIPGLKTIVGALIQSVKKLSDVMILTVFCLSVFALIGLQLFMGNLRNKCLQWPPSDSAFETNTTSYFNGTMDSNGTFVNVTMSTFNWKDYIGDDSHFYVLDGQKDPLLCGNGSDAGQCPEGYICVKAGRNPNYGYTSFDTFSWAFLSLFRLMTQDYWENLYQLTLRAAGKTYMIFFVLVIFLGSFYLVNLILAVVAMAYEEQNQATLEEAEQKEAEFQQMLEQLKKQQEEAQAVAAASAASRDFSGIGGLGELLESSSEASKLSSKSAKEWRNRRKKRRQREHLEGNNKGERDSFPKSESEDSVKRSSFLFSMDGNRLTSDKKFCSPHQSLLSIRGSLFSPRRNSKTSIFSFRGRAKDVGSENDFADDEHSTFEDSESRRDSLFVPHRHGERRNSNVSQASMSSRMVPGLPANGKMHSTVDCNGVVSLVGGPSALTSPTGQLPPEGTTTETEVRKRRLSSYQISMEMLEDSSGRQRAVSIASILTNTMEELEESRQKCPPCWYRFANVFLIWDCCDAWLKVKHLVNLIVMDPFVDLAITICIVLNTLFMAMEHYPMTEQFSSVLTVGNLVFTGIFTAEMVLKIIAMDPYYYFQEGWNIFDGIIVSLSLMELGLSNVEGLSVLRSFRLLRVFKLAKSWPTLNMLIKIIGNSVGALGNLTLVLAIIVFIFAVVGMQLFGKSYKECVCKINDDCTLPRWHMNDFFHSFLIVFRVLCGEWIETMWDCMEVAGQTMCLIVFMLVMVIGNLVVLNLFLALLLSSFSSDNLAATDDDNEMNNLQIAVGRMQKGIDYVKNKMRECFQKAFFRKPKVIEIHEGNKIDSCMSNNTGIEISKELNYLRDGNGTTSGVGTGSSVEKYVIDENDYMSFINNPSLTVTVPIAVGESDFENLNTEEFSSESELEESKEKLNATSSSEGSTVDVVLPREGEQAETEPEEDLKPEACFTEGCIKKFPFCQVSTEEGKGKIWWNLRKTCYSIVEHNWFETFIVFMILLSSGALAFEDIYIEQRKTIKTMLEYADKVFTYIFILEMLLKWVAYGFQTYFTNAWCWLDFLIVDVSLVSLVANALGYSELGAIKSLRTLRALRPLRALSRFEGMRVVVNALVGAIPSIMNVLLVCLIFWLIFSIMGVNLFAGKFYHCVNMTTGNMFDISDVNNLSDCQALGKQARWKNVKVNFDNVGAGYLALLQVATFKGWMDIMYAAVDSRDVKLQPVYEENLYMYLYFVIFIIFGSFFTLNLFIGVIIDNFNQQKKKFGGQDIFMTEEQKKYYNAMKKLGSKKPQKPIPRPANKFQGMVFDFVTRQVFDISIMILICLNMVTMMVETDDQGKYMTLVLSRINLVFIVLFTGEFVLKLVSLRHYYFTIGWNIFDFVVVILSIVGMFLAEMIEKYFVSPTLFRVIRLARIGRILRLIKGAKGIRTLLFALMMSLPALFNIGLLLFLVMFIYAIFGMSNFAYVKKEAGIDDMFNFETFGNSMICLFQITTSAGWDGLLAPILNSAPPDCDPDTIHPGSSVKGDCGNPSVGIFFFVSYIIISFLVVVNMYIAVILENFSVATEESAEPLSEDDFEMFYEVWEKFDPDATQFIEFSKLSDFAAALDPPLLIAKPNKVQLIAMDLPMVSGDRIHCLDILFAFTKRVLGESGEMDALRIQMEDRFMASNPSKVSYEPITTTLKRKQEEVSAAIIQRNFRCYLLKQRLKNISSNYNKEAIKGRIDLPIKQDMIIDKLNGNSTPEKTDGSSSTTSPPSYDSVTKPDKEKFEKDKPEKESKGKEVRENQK
hNav1.5, sequence (Q14524 whole entry, looked up): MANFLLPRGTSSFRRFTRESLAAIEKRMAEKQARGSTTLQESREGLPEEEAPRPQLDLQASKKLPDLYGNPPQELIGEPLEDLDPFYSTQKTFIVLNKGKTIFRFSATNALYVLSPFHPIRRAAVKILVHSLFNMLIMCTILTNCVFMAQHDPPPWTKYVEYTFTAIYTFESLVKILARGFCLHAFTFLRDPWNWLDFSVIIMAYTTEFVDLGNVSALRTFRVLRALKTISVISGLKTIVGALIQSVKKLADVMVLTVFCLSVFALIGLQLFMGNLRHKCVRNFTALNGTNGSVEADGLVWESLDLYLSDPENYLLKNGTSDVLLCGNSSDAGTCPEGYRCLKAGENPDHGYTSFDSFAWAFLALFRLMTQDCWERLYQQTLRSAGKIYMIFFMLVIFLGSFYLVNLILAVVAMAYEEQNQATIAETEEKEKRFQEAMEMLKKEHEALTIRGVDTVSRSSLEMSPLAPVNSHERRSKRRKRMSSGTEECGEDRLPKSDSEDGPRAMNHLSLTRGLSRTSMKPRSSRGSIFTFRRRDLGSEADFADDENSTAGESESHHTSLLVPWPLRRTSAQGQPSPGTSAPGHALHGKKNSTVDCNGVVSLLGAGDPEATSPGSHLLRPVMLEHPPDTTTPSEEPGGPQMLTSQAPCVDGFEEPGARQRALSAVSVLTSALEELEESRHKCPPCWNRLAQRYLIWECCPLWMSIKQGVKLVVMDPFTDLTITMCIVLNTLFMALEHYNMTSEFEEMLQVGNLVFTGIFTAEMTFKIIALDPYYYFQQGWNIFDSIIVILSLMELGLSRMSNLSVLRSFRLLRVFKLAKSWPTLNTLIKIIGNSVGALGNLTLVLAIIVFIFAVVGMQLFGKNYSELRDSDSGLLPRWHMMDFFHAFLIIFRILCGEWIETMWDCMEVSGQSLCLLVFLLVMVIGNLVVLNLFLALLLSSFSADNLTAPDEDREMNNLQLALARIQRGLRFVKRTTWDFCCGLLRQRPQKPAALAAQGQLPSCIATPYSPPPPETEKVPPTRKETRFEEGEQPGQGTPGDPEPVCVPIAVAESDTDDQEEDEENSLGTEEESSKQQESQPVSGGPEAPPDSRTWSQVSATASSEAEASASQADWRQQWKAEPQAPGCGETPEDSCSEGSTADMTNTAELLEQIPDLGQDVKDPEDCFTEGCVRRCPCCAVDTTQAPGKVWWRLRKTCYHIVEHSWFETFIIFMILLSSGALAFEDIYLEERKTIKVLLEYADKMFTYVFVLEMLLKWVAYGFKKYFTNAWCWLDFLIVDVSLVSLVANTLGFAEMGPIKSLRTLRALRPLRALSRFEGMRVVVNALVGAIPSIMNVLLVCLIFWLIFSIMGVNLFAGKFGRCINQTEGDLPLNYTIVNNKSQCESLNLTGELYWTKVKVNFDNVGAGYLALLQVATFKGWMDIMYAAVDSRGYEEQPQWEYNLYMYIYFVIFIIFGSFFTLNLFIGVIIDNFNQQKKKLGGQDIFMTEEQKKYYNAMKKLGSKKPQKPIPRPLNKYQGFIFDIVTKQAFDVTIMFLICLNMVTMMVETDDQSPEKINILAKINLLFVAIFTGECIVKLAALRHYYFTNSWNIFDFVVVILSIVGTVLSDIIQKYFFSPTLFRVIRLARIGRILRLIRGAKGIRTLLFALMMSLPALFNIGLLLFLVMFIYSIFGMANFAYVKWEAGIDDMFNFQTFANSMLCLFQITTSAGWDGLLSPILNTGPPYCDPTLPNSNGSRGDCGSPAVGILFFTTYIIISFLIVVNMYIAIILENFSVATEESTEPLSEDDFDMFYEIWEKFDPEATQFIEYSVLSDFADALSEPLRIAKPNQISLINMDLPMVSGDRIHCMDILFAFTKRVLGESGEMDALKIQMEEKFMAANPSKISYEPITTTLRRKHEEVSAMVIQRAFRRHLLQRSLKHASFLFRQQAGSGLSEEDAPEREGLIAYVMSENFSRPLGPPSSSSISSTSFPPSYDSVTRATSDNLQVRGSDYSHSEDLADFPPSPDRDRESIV

SMILES: CC[C@H](C)[C@@H]1NC(=O)[C@@H]2CSSC[C@@H]3NC(=O)[C@H](C(C)C)NC(=O)[C@H](CC(C)C)NC(=O)[C@H](CC(N)=O)NC(=O)[C@@H]4CCCN4C(=O)[C@H](CCCNC(=N)N)NC(=O)[C@H](CSSC[C@H](NC(=O)[C@@H](N)CC(=O)O)C(=O)N[C@@H](CC(C)C)C(=O)NCC(=O)N[C@@H](Cc4cn(C)c5ccccc45)C(=O)N[C@@H](CCSC)C(=O)N[C@@H](CCCNC(=N)N)C(=O)N[C@@H](CCCCN)C(=O)N2)NC(=O)[C@H](CSSC[C@@H](C(=O)N[C@@H](CCCCN)C(=O)N[C@@H](Cc2ccc(O)cc2)C(=O)N[C@H](C(=O)N[C@@H](Cc2ccccc2)C(N)=O)C(C)C)NC(=O)[C@H](Cc2c[nH]c4ccccc24)NC(=O)[C@H](CCCCN)NC(=O)[C@H](Cc2c[nH]cn2)NC(=O)[C@H]([C@@H](C)O)NC(=O)[C@H](CCCNC(=N)N)NC(=O)[C@H](CO)NC3=O)NC(=O)[C@H](CCCCN)NC(=O)[C@H](CC(=O)O)NC(=O)[C@H](CC(N)=O)NC(=O)[C@H](CC(=O)O)NC(=O)[C@@H]2CCCN2C1=O [SEQ ID NO: 264]
- IC50 (hNav1.3; [1]): 90 nM
- IC50 (hNav1.5; [1]): 8170 nM
- IC50 (hNav1.7; [1]): 90 nM

SMILES: CC[C@H](C)[C@@H]1NC(=O)[C@@H]2CSSC[C@@H]3NC(=O)[C@H](C(C)C)NC(=O)[C@H](CC(C)C)NC(=O)[C@H](CC(N)=O)NC(=O)[C@@H]4CCCN4C(=O)[C@H](CCCNC(=N)N)NC(=O)[C@H](CSSC[C@H](NC(=O)[C@@H](N)CC(=O)O)C(=O)N[C@@H](CC(C)C)C(=O)NCC(=O)N(C)[C@@H](Cc4ccccc4)C(=O)N[C@@H](CC(C)C)C(=O)N[C@@H](CCCNC(=N)N)C(=O)N[C@@H](CCCCN)C(=O)N2)NC(=O)[C@H](CSSC[C@@H](C(=O)N[C@@H](CCCCN)C(=O)N[C@@H](Cc2ccc(O)cc2)C(=O)N[C@H](C(=O)N[C@@H](Cc2ccccc2)C(N)=O)C(C)C)NC(=O)[C@H](Cc2c[nH]c4ccccc24)NC(=O)[C@H](CCCCN)NC(=O)[C@H](Cc2c[nH]cn2)NC(=O)[C@H]([C@@H](C)O)NC(=O)[C@H](CCCNC(=N)N)NC(=O)[C@H](CO)NC3=O)NC(=O)[C@H](CCCCN)NC(=O)[C@H](CC(=O)O)NC(=O)[C@H](CC(N)=O)NC(=O)[C@H](CC(=O)O)NC(=O)[C@@H]2CCCN2C1=O [compound 674]
- IC50 (hNav1.3; use-dependent protocol, hNav1.3): 310 nM
- IC50 (hNav1.5; use-dependent protocol, hNav1.5): > 5000 nM
- IC50 (hNav1.7; use-dependent protocol, hNav1.7): 240 nM

SMILES: CC[C@H](C)[C@@H]1NC(=O)[C@@H]2CSSC[C@@H]3NC(=O)[C@H](C(C)C)NC(=O)[C@H](CC(C)C)NC(=O)[C@H](CC(N)=O)NC(=O)[C@@H]4CCCN4C(=O)[C@H](CCCNC(=N)N)NC(=O)[C@H](CSSC[C@H](NC(=O)[C@@H](N)CC(=O)O)C(=O)N[C@@H](CC(C)C)C(=O)NCC(=O)N[C@@H](C)C(=O)N[C@@H](CC(C)C)C(=O)N[C@@H](CCCNC(=N)N)C(=O)N[C@@H](CCCCN)C(=O)N2)NC(=O)[C@H](CSSC[C@@H](C(=O)N[C@@H](CCCCN)C(=O)N[C@@H](Cc2ccc(O)cc2)C(=O)N[C@H](C(=O)N[C@@H](Cc2ccccc2)C(=O)O)C(C)C)NC(=O)[C@H](Cc2c[nH]c4ccccc24)NC(=O)[C@H](CCCNC(=N)N)NC(=O)[C@H](Cc2c[nH]cn2)NC(=O)[C@H]([C@@H](C)O)NC(=O)[C@H](CCCNC(=N)N)NC(=O)[C@H](CO)NC3=O)NC(=O)[C@H](CCCCN)NC(=O)[C@H](CC(=O)O)NC(=O)[C@H](CCC(N)=O)NC(=O)[C@H](CC(=O)O)NC(=O)[C@@H]2CCCN2C1=O [compound 869] (H-DCLGALRKCIPDQDKCCRPNLVCSRTHRWCKYVF-OH; disulfide 2-17, 9-23, 16-30)
- IC50 (hNav1.3; use-dependent block, hNav1.3): > 5000 nM
- IC50 (hNav1.5; use-dependent block, hNav1.5): > 5000 nM
- IC50 (hNav1.7; use-dependent block, hNav1.7): > 5000 nM

SMILES: CC[C@H](C)[C@@H]1NC(=O)[C@@H]2CSSC[C@@H]3NC(=O)[C@H](C(C)C)NC(=O)[C@H](CC(C)C)NC(=O)[C@H](CC(N)=O)NC(=O)[C@@H]4CCCN4C(=O)[C@H](CCCNC(=N)N)NC(=O)[C@H](CSSC[C@H](NC(=O)[C@@H](N)CC(=O)O)C(=O)N[C@@H](CC(C)C)C(=O)NCC(=O)N[C@@H](Cc4ccccc4)C(=O)N[C@@H](Cc4cn(C)c5ccccc45)C(=O)N[C@@H](CCCNC(=N)N)C(=O)N[C@@H](CCCCN)C(=O)N2)NC(=O)[C@H](CSSC[C@@H](C(=O)N[C@@H](CCCCN)C(=O)N[C@@H](Cc2ccc(O)cc2)C(=O)N[C@H](C(=O)N[C@@H](Cc2ccccc2)C(N)=O)C(C)C)NC(=O)[C@H](Cc2c[nH]c4ccccc24)NC(=O)[C@H](CCCCN)NC(=O)[C@H](Cc2c[nH]cn2)NC(=O)[C@H]([C@@H](C)O)NC(=O)[C@H](CCCNC(=N)N)NC(=O)[C@H](CO)NC3=O)NC(=O)[C@H](CCCCN)NC(=O)[C@H](CC(=O)O)NC(=O)[C@H](CC(N)=O)NC(=O)[C@H](CC(=O)O)NC(=O)[C@@H]2CCCN2C1=O [SEQ ID NO: 292]
- IC50 (hNav1.3; [1]): 30 nM
- IC50 (hNav1.5; [1]): 5660 nM
- IC50 (hNav1.7; [1]): 40 nM

SMILES: CC[C@H](C)[C@@H]1NC(=O)[C@@H]2CSSC[C@@H]3NC(=O)[C@H](C(C)C)NC(=O)[C@H](CC(C)C)NC(=O)[C@H](CC(N)=O)NC(=O)[C@@H]4CCCN4C(=O)[C@H](CCCNC(=N)N)NC(=O)[C@H](CSSC[C@H](NC(=O)[C@@H](N)CC(=O)O)C(=O)N[C@@H](CC(C)C)C(=O)NCC(=O)N[C@@H](C)C(=O)N[C@@H](Cc4ccccc4)C(=O)N[C@@H](CCCNC(=N)N)C(=O)N[C@@H](CCCCN)C(=O)N2)NC(=O)[C@H](CSSC[C@@H](C(=O)N[C@@H](CCCCN)C(=O)N[C@@H](Cc2ccc(O)cc2)C(=O)N[C@H](C(=O)N[C@@H](Cc2ccccc2)C(=O)O)C(C)C)NC(=O)[C@H](Cc2c[nH]c4ccccc24)NC(=O)[C@H](CCCNC(=N)N)NC(=O)[C@H](Cc2c[nH]cn2)NC(=O)[C@H]([C@@H](C)O)NC(=O)[C@H](CCCNC(=N)N)NC(=O)[C@H](CO)NC3=O)NC(=O)[C@H](CCCCN)NC(=O)[C@H](CC(=O)O)NC(=O)[C@H](CCSC)NC(=O)[C@H](CC(=O)O)NC(=O)[C@@H]2CCCN2C1=O [compound 845]
- IC50 (hNav1.3; use-dependent block, hNav1.3): 800 nM
- IC50 (hNav1.5; use-dependent block, hNav1.5): > 5000 nM
- IC50 (hNav1.7; use-dependent block, hNav1.7): 4700 nM

SMILES: CC[C@H](C)[C@@H]1NC(=O)[C@@H]2CCCN2C(=O)[C@H]([C@@H](C)CC)NC(=O)[C@@H]2CSSC[C@@H]3NC(=O)[C@H](C(C)C)NC(=O)[C@H](CC(C)C)NC(=O)[C@H](CC(N)=O)NC(=O)[C@@H]4CCCN4C(=O)[C@H](CCCNC(=N)N)NC(=O)[C@H](CSSC[C@H](NC(=O)[C@@H](N)CC(=O)O)C(=O)N[C@@H](CC(C)C)C(=O)NCC(=O)N[C@@H](Cc4ccccc4)C(=O)N[C@@H](CCSC)C(=O)N[C@@H](CCCNC(=N)N)C(=O)N[C@@H](CCCCN)C(=O)N2)NC(=O)[C@H](CSSC[C@@H](C(=O)N[C@@H](CCCCN)C(=O)N[C@@H](Cc2ccc(O)cc2)C(=O)N[C@H](C(=O)N[C@@H](Cc2ccccc2)C(N)=O)C(C)C)NC(=O)[C@H](Cc2c[nH]c4ccccc24)NC(=O)[C@H](CCCCN)NC(=O)[C@H](Cc2c[nH]cn2)NC(=O)[C@H]([C@@H](C)O)NC(=O)[C@H](CCCNC(=N)N)NC(=O)[C@H](CO)NC3=O)NC(=O)[C@H](CCCCN)NC(=O)[C@H](CC(=O)O)NC(=O)[C@H](CC(N)=O)NC1=O [compound 195] (H-DCLGFMRKCIPINDKCCRPNLVCSRTHKWCKYVF-NH2; disulfide 2-17, 9-23, 16-30)
- IC50 (hNav1.3; Use): 607 nM
- IC50 (hNav1.5; Use): 18300 nM
- IC50 (hNav1.7; Use): 662 nM
